Source: article PMC6094173, “Releasable and traceless PEGylation of arginine-rich antimicrobial peptides” (Chemical Science, 2017)
Square brackets hold non-standard residues; d marks the D form. Peptide text beside a SMILES is read from it. * marks the point of attachment. FITC = O=C1OC2(c3ccc(O)cc3Oc3cc(O)ccc32)c2ccc(NC(=S)*)cc21; Ahx = NCCCCCC(=O)O

Experiments:
[1] = test system: trypsin; assay: Resistance to proteolysis in human serum spiked with trypsin, read out by antibacterial activity; format: in vitro ADME; conditions: ∼90% human serum with 0.01 wt% trypsin, r.t.; read-out anti-proliferative effect on E. coli
Procedure: (§1) In order to validate that the PEGylated AMPs are resistant to proteolysis, [3 + 2a] (2 kDa) was incubated in ∼90% human serum (final concentration) spiked with 0.01 wt% trypsin for up to 24 h. To prevent de-PEGylation during this incubation period (i.e., to test the protease-resistance of the conjugate rather than the released AMP (known to be degradable; vide infra)), the concentration of [3 + 2a] was maintained high, and a small excess of free 2a was kept in solution. Based on Fig. 2 and 4, these conditions promote the forward PEGylation reaction and disfavor de-PEGylation. Following the incubation period (1 h, 6 h, or 24 h), serum proteins and trypsin were removed to stop proteolysis, and the integrity of the AMP 3 within the conjugate was evaluated via its anti-proliferative effect on E. coli. […]
[…] 5 h t o obtain mid-logarithmic phase organisms (10^9 cfu· mL –1). […] After this period, proteins were immediately removed by addition of 1.5 mL acetonitrile, sedimentation of precipitate by centrifugation, quantitative recovery of the supernatant, and drying by freeze-drying (FreeZone 4.5, Labconco). […] After addition of analyte to the w el l, the mi cr op lat e was in cub at ed at 37 °C for 16 h with shaking, and growth inhibition was determined by measuring absorbance at 620 nm using a Cytation 5 multi- mode microplate reader (BioTek Inc., VT). […]

[2] = test system: E. coli B; format: cell-based, Escherichia coli B; conditions: 16 h
Procedure: as §1
reaction by HPLC using the fluorescence detector. Kinetics were monitored in triplicate. […]
To determine peptide content, a known mass of conjugate was dissolved in 500 µL D2O, and the absorbance of the solution at 452 nm (the FITC dye on the peptide) was compared to a standard curve obtained with the pure peptide. Then, to deter mine the number of moles of mPEG within this solution, a small amount (5 µL) of dimethyl sulfoxide was quantitatively added to a known volume of the D2O solution, and a 1H NMR spectrum recorded. […]

CC[C@@H](C)[C@@H](NC(=O)[C@H](CCCNC(=N)N)NC(=O)[C@H](CCC(N)=O)NC(=O)[C@@H](NC(=O)[C@H](NC(=O)[C@H](CCCNC(=N)N)NC(=O)[C@H](CCCCN)NC(=O)[C@H](Cc1ccccc1)NC(=O)CNC(=O)CCCCCNC(=S)Nc1ccc2c(c1)C(=O)OC21c2ccc(O)cc2Oc2cc(O)ccc21)[C@H](C)CC)C(C)C)C(=O)N[C@@H](CCCCN)C(=O)N[C@@H](CC(=O)O)C(=O)N[C@@H](Cc1ccccc1)C(=O)N[C@H](CC(C)C)C(=O)N[C@@H](CCCNC(=N)N)C(=O)N[C@@H](CC(N)=O)C(=O)N[C@@H](CC(C)C)C(=O)N[C@H](C(N)=O)C(C)C [compound 3] ({FITC-Ahx}-GFKR[dI]VQR[dI]KDF[dL]RNLV-NH2)
Time to loss of antimicrobial properties in trypsin-spiked serum [1]: less than 6 h | IC50 [2]: 8 ± 5 µM
